From patent publication US8129106B2, “Sequence-specific detection of methylation in biomolecules” (priority 2004, dated 2012)
Read-outs that look alike come from different tables or passages of the source.

Columns and labels:
[1] = target: T1, M.SssI (Spiroplasma monobiae, UniProt P15840); experiment: M.SssI-catalysed coupling of aziridine cofactors with duplex oligodeoxynucleotides (anion exchange HPLC); assay type: biochemical
T1 construct: made in house; host or cells: Escherichia coli
Experimental: M.SssI-mediated conversion of 6BAz was studied by using a duplex-oligodeoxynucleotide and purified DNA-methyl-transferase. After adjusting and optimizing the reaction conditions (pH and composition of the puffers, temperature, amount of M.SssI) 60% of a hemi-methylated duplex-oligodeoxynucleotide was labelled in a 2 h reaction. When unmethylated duplex-oligodeoxynucleotides were used, approximately 100% was labelled. These diverging results may be due to the presence of minor amounts of natural cofactor AdoMet in the enzyme preparation.
Solutions of hemi-methylated duplex oligodeoxynucleotide I-II (1 μM, I=5′-[…]-3′ (SEQ ID NO:1), II=5′-[…]-3′ with M=5-methyl-2′-deoxycytidine (SEQ ID NO:2)) or non-methylated duplex oligodeoxynucleotide I-III (1 μM, I=5′-[…]-3′ (SEQ ID NO:1), III=5′-[…]-3′ (SEQ ID NO:3)), aziridine cofactor 3 (100 μM) and M.SssI (2 μM) in buffer (10 mM Tris hydrochloride, pH 7.4, 50 mM sodium chloride, 10 mM ethylenediaminetetraacetic acid and 2 mM dithiothreitol) were incubated at 21° C. The progress of the coupling reactions was monitored by anion exchange HPLC (Poros 10 HQ, 10 μm, 4.6×100 mm, Applied Biosystems). Compounds were eluted with aqueous potassium chloride (0.2 M for 5 min, followed by linear gradients to 0.5 M in 5 min and to 1 M in 30 min) in Tris hydrochloride buffer (10 mM, pH 7.6) supplemented with sodium azide (1 mM) at a flow of 4 mL/min.

[2] = target: T2, M.HhaI (Haemophilus parahaemolyticus, UniProt P05102); experiment: M.HhaI-catalysed coupling of biotinylated aziridine cofactors with duplex oligodeoxynucleotide I-II (anion exchange HPLC); assay type: biochemical, Haemophilus haemolyticus; settings: for conversion of duplex I-II to coupling product (protein-DNA complex): cofactor 80 μM, duplex I-II 10 μM, M.HhaI 11 μM, 37° C., after 3 h (1), 1.5 h (2), 6.25 h (3)
Experimental: Solutions (400 μL) of aziridine cofactor 1, 2 or 3 (32 nmol, 80 μM), duplex oligodeoxynucleotide I-II (4 nmol, 10 μM) and M.HhaI (4.4 nmol, 11 μM) in buffer (10 mM Tris hydrochloride, pH 7.4, 50 mM sodium chloride, 0.05 mM ethylene-diaminetetraacetic acid and 2 mM β-mercaptoethanol) were incubated at 37° C. The progress of the coupling reactions was monitored by anion exchange HPLC (Poros 10 HQ, 10 μm, 4.6×10 mm, Applied Biosystems). Compounds were eluted with aqueous potassium chloride (0.2 M for 5 min, followed by linear gradients to 0.4 M in 5 min, to 0.6 M in 20 min and to 1 M in 5 min) in Tris hydrochloride buffer (10 mM, pH 7.6) at a flow of 4 mL/min. […] These new compounds are assigned to non-covalent protein-DNA complexes between M.HhaI and the coupling products I^1-II, I^2-II and I^3-II based on their UV absorption ratio at 260 nm and 280 nm.
The presence and functionality of biotin groups in I^1-II, I^2-II and I^3-II were verified by addition of streptavidin. Residual aziridine cofactors 1, 2 or 3 were first removed from the labelled duplexes I^1-II, I^2-II or I^3-II by gel filtration using NAP-5 columns (Amersham Biosciences, Freiburg, Germany) according to the instructions of the supplier. Afterwards, streptavidin (25 μg) was added to the solutions (25 μL, 0.25 nmol I^1-II, I^2-II or I^3-II) and incubation was performed at 37° C. for 30 min.

[3] = target: T2, M.HhaI; experiment: Methylation-sensitive biotinylation of linearized pUC19 plasmid DNA with M.HhaI (R.HhaI protection, streptavidin mobility shift); assay type: biochemical, Haemophilus haemolyticus; settings: cofactor 80 μM, 37° C. for 2 h, non- vs CpG-methylated LpUC19
Experimental: The reaction with aziridine cofactor 1 and M.HhaI was used to specifically detect DNA methylation of plasmid DNA (FIG. 2). Experiments were performed with R.XmnI-linearized plasmid pUC19 DNA (LpUC19). Cytosine residues within the 5′-CG-3′ DNA sequences (CpG-motives) of LpUC19 were methylated using the DNA (cytosine-5)-methyltransferase M.SssI and the natural cofactor AdoMet. Non- and CpG-methylated LpUC19 were treated with biotinylated aziridine cofactor 1 and M.HhaI, which can only alkylate the first cytosine residue within the 5′-GCGC-3′ DNA sequence if this residue is not blocked by methylation of the inner CpG-motive. The different plasmids where then analyzed by treatment with the restriction endo-nuclease R.HhaI (5′-GCGC-3′ recognition sequence) or streptavidin (tight binding to the biotin group) leading to fragmentation, no reaction or an electrophoretic mobility shift (FIG. 2A). […]
Samples (10 μL) of unmodified (A.), methylated (B. or C.) or biotinylated (C.) LpUC19 plasmid DNA (200 ng) in buffer (10 mM Tris hydrochloride, pH 7.9, 10 mM magnesium chloride, 50 mM sodium chloride, 1 mM 1,4-dithiothreitol and 1 mg/mL bovine serum albumin) were incubated with R.HhaI (2 U) at 37° C. for 1 h. DNA fragmentation was analyzed by agarose gel electrophoresis (1% agarose gel). […]

T2 sequence (P05102 whole entry): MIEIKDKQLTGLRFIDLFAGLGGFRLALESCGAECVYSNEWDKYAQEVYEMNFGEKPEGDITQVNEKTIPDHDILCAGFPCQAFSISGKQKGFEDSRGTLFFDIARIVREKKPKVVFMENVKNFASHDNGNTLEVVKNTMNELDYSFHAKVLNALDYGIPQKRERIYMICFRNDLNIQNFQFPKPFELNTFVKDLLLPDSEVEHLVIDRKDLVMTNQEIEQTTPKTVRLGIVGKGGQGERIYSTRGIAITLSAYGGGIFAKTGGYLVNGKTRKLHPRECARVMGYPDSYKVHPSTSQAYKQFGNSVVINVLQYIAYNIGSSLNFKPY
T1 sequence (P15840 whole entry): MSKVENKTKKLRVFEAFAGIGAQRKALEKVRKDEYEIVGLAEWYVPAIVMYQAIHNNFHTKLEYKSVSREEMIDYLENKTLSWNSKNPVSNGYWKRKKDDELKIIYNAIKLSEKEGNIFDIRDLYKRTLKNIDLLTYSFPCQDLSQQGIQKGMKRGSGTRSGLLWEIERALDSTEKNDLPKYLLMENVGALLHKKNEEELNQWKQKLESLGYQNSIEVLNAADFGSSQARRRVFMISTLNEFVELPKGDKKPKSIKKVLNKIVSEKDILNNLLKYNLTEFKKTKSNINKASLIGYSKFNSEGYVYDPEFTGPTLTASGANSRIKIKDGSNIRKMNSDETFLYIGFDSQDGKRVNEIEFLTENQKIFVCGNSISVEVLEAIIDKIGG

Row | Substance | cofactor use by M.SssI (transfer onto DNA) [1] | hemi-methylated duplex-oligodeoxynucleotide labelled ([1]; M.SssI, 2 h reaction, optimized conditions) | unmethylated duplex-oligodeoxynucleotide labelled ([1]; M.SssI, optimized conditions) | conversion of non-methylated duplex I-III to protein-DNA complexes with coupling product ([1]; duplex I-III 1 μM, cofactor 100 μM, M.SssI 2 μM, 21° C., 3 h incubation) | conversion of starting duplex I-II to product duplex I^3-II ([1]; hemi-methylated duplex I-II 1 μM, cofactor 100 μM, M.SssI 2 μM, 21° C., 3 h) | cofactor use by M.SssI (transfer onto DNA) ([1]; listed as 6BAz) | substrate for M.HhaI [2] | conversion of duplex I-II to coupling product (protein-DNA complex) [2] | labelling reaction of LpUC19 plasmid DNA with M.HhaI [3]
1 | 5′-N-Aziridinyl-N6-[1″-(N″-biotinyl)-4″-aminobutyl]-5′-deoxyadenosine [aziridine cofactor 3] | substrate for M.SssI | 60% | approximately 100% | almost complete conversion | about 60% | aziridin-cofactor for the DNA-MTase M.SssI | good substrates | almost complete conversion | –
2 | 4-Amino-7-(5′-N-aziridinyl-5′-deoxy-β-D-ribofuranosyl)-5-[1″-(N″-biotinyl)-3″-aminoprop-1-ynyl]-7H-pyrrolo[2,3-d]pyrimidine [aziridine cofactor 2] | – | – | – | – | – | – | good substrates | almost complete conversion | –
3 | 4-Amino-7-(5′-N-aziridinyl-5′-deoxy-β-D-ribofuranosyl)-5-[1″-(N″-biotinyl)-3″-aminopropyl]-7H-pyrrolo[2,3-d]pyrimidine [aziridine cofactor 1] | – | – | – | – | – | – | good substrates | almost complete conversion | sequence-specific and blocked by CpG-methylation
